Data taken from patent US20030087830A1, “Low molecular weight components of cartilage, complexes of metals with amino acids, DI-peptides and analogs thereof; processes for preparation and therapeutic uses thereof” (priority 2001, published 2003).

How the values were obtained:
Endothelial cells [1] = test: Endothelial cell migration assay (VEGF, modified Boyden chamber); assay type: cell-based
Method: The endothelial cell migration assay was performed to determine the ability of test samples to inhibit the chemotaxic activity of vascular endothelial growth factor (VEGF;R/D System, MN) using a modified Boyden chamber (Transwell™, Corning/Costar). Briefly, polyvinylidene difluoride filters (PVDF) were coated with Pronectin F (Biosources, CA), a constituent of basement membrane barrier. Boyden chambers were assembled by adding VEGF to the culture media in the lower chamber (chemoattractant). Endothelial cells suspended in cultured media in the presence or the absence of the test samples were added to the upper chamber. The chambers were then incubated for a period of 4.5 hours at 37° C. At the end of the incubation period, the cells from both side of the PVDF membrane were fixed with 3.7% formaldehyde. Cells from the upper surface of the membrane were mechanically removed, and the cells remaining on the underside of the membrane were stained with crystal violet (0.5%; Sigma). Cells were then carefully rinsed and the dye fixed to the cells was quantified with a microplate reader ([…]) after its solubilization with a solution of 50% citric acid (0.1M) in water and 50% ethanol.

human dermal fibroblasts = test: Fibroblast proliferation; assay type: cell-based; conditions: 48 hours; free amino acids and Glu-Trp 2.5 mM, CuCl2 1.25 mM
Method: (§1) Endothelial and tumor cell proliferation assays were performed to determine the ability of test samples to inhibit endothelial cell proliferation (antiangiogenic activity), normal cell proliferation,and tumor cell proliferation.
(§2) Endothelial cells (Human umbilical vein endothelial cells (HUVEC), bovine aortic endothelial cells (BAEC)), skeletal muscle cells, human dermal fibroblasts (all from Clonetics, Walkersville, Md.) were respectively maintained in EBM-2, MDEM, SKGM and FGFM-2 complete media according to manufacturer's instructions. Tumor rat glioblastoma cell line (C6) was maintained in DMEM (Sigma, Oaksville, Ontario) supplemented with 10% fetal calf serum (FCS) and antibiotics in 5% CO2. Briefly, cells seeded in 96-well sterile tissue culture dishes were treated with increasing concentrations of different test samples for a period of 48 hours at 37° C. Cell number was then evaluated by a calorimetric assay using the cell proliferation reagent tetrazolium salt and the fluorimetric assay using DNA dye (Hoescht) according to the procedure established by the manufacturer (Boehringer Mannhein). The conversion of these tetrazolium salts into formazan occurs only in metabolically active cells. The percentage of cell inhibition was determined by comparison to untreated cells.

Endothelial cells [2] = test: Endothelial cell tubule formation assay (tubulogenesis); assay type: cell-based; set-up: key to Tubulogenesis: 0: Numerous capillary-like tube forming pentagonal network; +: Decrease of capillary-like tubes; ++: Dramatic decrease of capillary-like tubes; +++: Absence of capillary-like tubes
Method: The endothelial cell tubule formation assay is a semi-quantitative assay that was performed to determine the ability of test samples to inhibit this multi-step process, which involves cell adhesion, migration, differentiation and growth, using a commercial kit (Chemicon). Briefly, endothelial cells were seeded on solid gel of Ecmatrix™ (Chemicon), basement proteins prepared from the Engelbreth Holm-Swarm (EHS) mouse tumor in microplate in a E-99 media (Sigma) supplemented with 5% FBS and VEGF (50 ng/ml) in the presence or absence of the test sample. Cells were incubated for a period of 24 hours at 37° C. Pictures were taken on the entire tissue culture dish using a binocular microscope for further evaluation.

[3] = test system: Striated muscle cells (skeletal muscle cells); test: Striated muscle cell proliferation; assay type: cell-based; conditions: 48 hours; free amino acids and Glu-Trp 2.5 mM, CuCl2 1.25 mM
Method: as §1, §2

[4] = test system: bFGF-stimulated blood vessel formation in Matrigel; test: Matrigel in vivo angiogenesis assay; set-up: species or system C57B1/6 mice; conditions: intra-peritoneal daily 10 days
Method: The Matrigel™ in vivo assay was performed to determine the ability of test samples to inhibit blood vessel formation (antiangiogenic activity) and to establish their bioavailability in vivo.
Briefly, liquid Matrigel™ (Becton Dickinson, Bedford, Mass.) was maintained at 4° C. and mixed thoroughly for at least 3 hours with 1,500 ng/ml basic fibroblast growth factor (bFGF) (R&D Systems, Minneapolis, Minn.) used as the primary angiogenic stimulus. The mixture (0.5 ml) was injected subcutaneously into the ventral midline of C57B1/6 mice, and treatment with different test samples or saline solution was initiated the same day. Additional animals were also injected with Matrigel™ containing no bFGF to serve as baseline controls. The animals were treated daily for a 10 day period (intra-peritonealy, 0.2 ml of each dose). At day 11, animals were injected with FITC-dextran 20 min prior to euthanizing treated mice. Matrigel™ gels were removed along with underlying peritoneum and prepared for FITC-dextran detection by fluorimetry. The concentration of FITC-dextran in the gels was calculated from a known concentration of FITC-dextran using a standard curve. The FITC-dextran content of the gels from compound-treated animals and controls was expressed as a percent of the positive bFGF-treated controls after the baseline control of FITC-dextran levels were subtracted from all groups.

[5] = Affinity of the amino acid with copper; assay type: physicochemical
[6] = test system: blood vessel formation in the vitelline membrane of chick embryo; test: Embryonic Vascularization Test (EVT); assay type: in vivo
Method: The Embryonic Vascularization Test (EVT) was performed to determine the ability of test samples to inhibit the formation of new blood vessels (antiangiogenic activity).
The normal development of a chick embryo involves the formation of an external vascular system located in the vitelline membrane which carries nutrients from the vitellus (yolk) to the developing embryo. When placed onto the vitelline membrane, antiangiogenic substances can inhibit the blood vessel formation that occurs in the vitelline membrane. Briefly, methylcellulose discs (an inert solid and transparent matrix) containing different test samples were placed on the external border of the vascular perimeter of the vitelline membrane, where the angiogenic process occurs. Vascularization was assessed 24 hours after disc deposition, and results were expressed as the percent of embryos in which blood vessel formation was affected. The blood vessel formation was considered affected when its growing path was either deviated, or diminished or when there was no growth observed beyond the disc as compared to the negative control. The results are expressed as 0, +, and ++ where 0 is for a lower response than 25 percent of the eggs; + is for a response between 25 and 50 percent; and ++ is for an antiangiogenic response observed in more than 50 percent of the eggs.
According to the endothelial cell proliferation assay, the relative effectiveness of two compounds is compared by reference to the EC50 thereof. The EC50 is the concentration of compound at which the number of endothelial cells is reduced by 50% as compared to control. The efficacy of the test samples in EVT is established by the percent of eggs with altered angiogenesis at a given inhibitor dose of 0.6 mg of copper equivalent (see FIG. 6 for examples). A comparison of the antiangiogenic activity of the compounds of the present invention with divalent metal salts (CuCl2, MgCl2, ZnCl2, CoCl2) and uncoupled alpha-amino acids, alpha-imino acids, dipeptides, and nitrogenated molecules comprising a carboxylic acid group, such as creatine, is provided to illustrate that the formation of the amino acid-copper complex gives rise to complexes having antiangiogenic activity.

Affinity of the AA with Cooper [5]: 16.0
Substance: L-Asp Cu L-Asp [Compound 6]
Cell migration activity (in words) (Endothelial cells [1]): important activity
Migration % of inhibition (Endothelial cells [1]; 1.25 mmole (equivalent copper), VEGF chemoattractant, 4.5 hours): 82% of inhibition
Cell Migration (% inhibition) (Endothelial cells [1]; copper complexes, concentration not given, VEGF, 4.5 hours): 82%
EC50 (human dermal fibroblasts): 1.15 mM
Tubulogenesis activity (in words) (Endothelial cells [2]): important activity
Tubulogenesis (in words) (Endothelial cells [2]; 1.25 mmole (equivalent copper), 24 hours): Decrease of capillary-like tube formation
Tubulogenesis (Endothelial cells [2]; copper complexes, concentration not given, VEGF 50 ng/ml, 24 hours): +
Striated muscle (EC50 (mM)) [3]: Non-active
Matrigel in vivo % of inhibition ([4]; 0.14 mg/Kg equivalent copper): 27.7% of inhibition
Matrigel in vivo % of inhibition ([4]; 1.14 mg/Kg equivalent copper): 22.6% of inhbition
Matrigel in vivo % inhibition ([4]; 1.4 mg/Kg equivalent copper): 22.6%
EVT (% of inhibition) ([6]; 0.6 mg copper equivalent, percent of embryos with affected blood vessel formation, 24 hours after disc deposition): ±38% of inhibition
EVT (% of inhibition) ([6]; activity at 0.6 mg equivalent Copper): + (+ between 25-50% of inhibition)
